Experimental findings from US20050282818A1, “Ubiquitin ligase inhibitors” (Rigel Pharmaceuticals, Inc., priority 2004, published 2005) are described below.

Like-named read-outs stand apart in the source and are kept apart here.

The test system of one assay is A549 cells. The experiment in a line: Cell proliferation PAD assay, A549. The note with it: Homo sapiens, 48 hours. It counts as cell-based. How it is done:
(§1) Cell lines used are available from American Type Culture Collection (ATCC), for example, cell cultures containing A549 (ATCC# CCL-185), HeLa (ATCC# CCL-2), HCT116 ATTC# CCL-247), and H1299 (ATCC# CRL-5803) cells were maintained in T175 flasks following the ATCC recommended media and handling procedures. […] A 20,000 cells/ml solution was made for plating. Cells were plated in black Packard 96 well plates by placing 100 μl per well (2,000 cells per well). […] The definitions of the cell types used are as follows: A549 is lung carcinoma; HI 299 is non-small cell lung carcinoma; HI 155 is non-small cell lung carcinoma; AsPC-1 is pancreatic adenocarcinoma; Caov-3 is ovarian adenocarcinoma; COLO 205 is colorectal adenocarcinoma; DLD-1 colorectal adenocarcinoma; HCT116 is colorectal carcinoma; DU 145 is prostate carcinoma; ES-2 is ovarian clear cell carcinoma; H460 is large cell lung carcinoma; HELA is cervical adenocarcinoma; MIA PaCa-2 is pancreatice carcinoma; OVCAR-3 is ovarian adenocarcinoma; OVCAR8 is ovarian carcinoma; PC3 is prostate adenocarcinoma; SK-OV-3 is ovarian adenocarcinoma; SU86.86 is pancreatic carcinoma; TOV-21G is avarian clear cell carcinoma; U2OS is bone osteosarcoma; is ASPC-I is pancreatic adenocarcinoma; BXPC-3 is pabcreatic adenocarcinoma; HL60 is promyeloblast promyelocytic leukemia; K562 is bone marrow chronic myelogenous leukemia; L1210 is mouse lymphocytic leukemia; MOLT3 is T lymphoblast acute lymphoblastic leukemia; MOLT4 is T lymphoblast acute lymphoblastic leukemia; SW620 is colorectal adenocarcinoma; THP-1 is monocyte acute monocytic leukemia; U937 is histiocytic lymphoma; and UACC-257 is melanoma.
(§2) Compounds and additional media were added 24 hours after cell plating. […] All compound testing was done in duplicate using 6.3 fold dilutions starting with 10 mM. […] Taxol and at least one additional control were run on all plates. Three microliters of the compound master plate were added to deep well blocks containing 750 μl of RPMI media. One hundred microliters were transferred from the compound/media deep well blocks to the plated cells resulting in a 500 fold dilution of the compounds. Cells were grown at 37° C., 5% CO2 for 48 hours.
(§3) Cells to be analyzed by photography were fixed and stained. One hundred microliters of media were removed and 100 μl of 9.3% formamide was added to each well. Plates were left on the benchtop for 45 minutes. A staining solution containing 1.55 μl of 1 mg/ml DAPI added to 18.75 ml PBS was warmed for 15 minutes at 37° C. The cells were aspirated prior to washing with 100 μl of PBS. Seventy microliters of PBS were aspirated and 170 μl of the DAPI solution were added to each well of fixed cells. Plates were left at room temperature for one hour then aspirated and washed twice with 100 μl of PBS. The stained cells were left at 4° C. for a minimum of 16 hours before photographic analysis with Array Scan II (Cellomics). Analysis of the photographic images to determine numbers of live cells (proliferation), apoptotic cells and dead cells, were according to the methods described in U.S. Utility patent application Ser. No. 10/652,440, which incorporated herein in its entirety.

In another assay the target is T1, TRAF6/Uev1A/Ubc13 (Homo sapiens, UniProt Q9Y4K3).
T1 sequence (Q9Y4K3 1-522): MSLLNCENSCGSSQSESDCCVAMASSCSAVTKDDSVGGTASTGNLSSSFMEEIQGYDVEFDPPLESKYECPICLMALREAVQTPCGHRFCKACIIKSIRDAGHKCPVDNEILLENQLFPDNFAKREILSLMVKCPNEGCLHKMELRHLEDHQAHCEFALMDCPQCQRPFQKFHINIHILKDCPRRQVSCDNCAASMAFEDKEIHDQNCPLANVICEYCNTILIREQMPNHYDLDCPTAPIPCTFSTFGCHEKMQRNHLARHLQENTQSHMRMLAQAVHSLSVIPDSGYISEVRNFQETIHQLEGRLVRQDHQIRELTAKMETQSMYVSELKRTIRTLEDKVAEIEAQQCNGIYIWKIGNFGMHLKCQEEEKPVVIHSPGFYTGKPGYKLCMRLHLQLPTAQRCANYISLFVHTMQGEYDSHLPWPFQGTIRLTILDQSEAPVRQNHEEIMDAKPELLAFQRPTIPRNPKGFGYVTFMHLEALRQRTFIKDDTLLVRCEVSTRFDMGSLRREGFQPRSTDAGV
The experiment in a line: TRAF6/Uev1A/Ubc13 plate-based ubiquitin ligase assay. The assay is classed as biochemical. How it is done:
For the assays described below, the TRAF6/Uev1A/UBC13 assay is the biochemical plate-based assay of TRAF6 ligase activity using Ubc13 as the E2 enzyme. The gel-based assay is the biochemical solution-based TRAF6 ligase assay (by SDS-PAGE and Western blot) to confirm the plate-based ELISA assay. The APC assay is an assay which is another E3 ligase (APC2/APC11) biochemical assay.
A 96-well Ni-plate was blocked with 100 μl of 1% casein in PBS for 1 hour at room temperature. The plates were then washed three times with 200 μl of 1×PBS and 80 μl of a reaction buffer was added per well which contained 50 ng of Flag-ubiquitin, 50 ng of His-ubiquitin, 62.5 mM Tris pH 7.5, 6.25 mM MgCl2, 1.0 mM DTT, and 2 μM ATP. To each well was added 10 μl of a solution of the compound in DMSO. The reaction was started by adding 10 μl of a solution consisting of 10 ng human E1, 25 ng each of Uev1a and Ubc13, and 100 ng TRAF6 in the reaction buffer. The plates were shaken for 10 minutes and incubate at room temperature for 1 hour. After the incubation, the plates were washed three times with 200 μl 1×PBS in 0.05% Tween and 100 μl of an antibody mix consisting of anti-Flag (1:30,000 dilution; Sigma F-3165) and anti-Mouse IgG-HRP (1/150,000 dilution; Jackson Immunoresearch #115-035-146) in 1×PBS with 0.25% BSA. The plates were then incubated for another 1 hour at room temperature, and after incubation the plate was washed three times with 200 μl 1×PBS with 0.05% Tween. The amount of ubiquitin was measured by adding 100 μl of Lumino substrate (1:5 dilution) and reading the luminescence with a fluorimeter.
Table 2 below illustrates the inhibitory activity of the compounds of the invention determined by the TRAF6/Uev1A/Ubc13 assay as well as in the ICAM, APC and the ROC1/CUL1 Ubiquitin Ligase Assay (SCF Assay). The IC50 values were determined using a various concentrations of the compounds.

A further assay relates to H1299 cells. Briefly: Cell proliferation PAD assay, H1299. Particulars: Homo sapiens, NCI-H1299, 3pt, 48 hours, read-out: H1299 3pt. It counts as cell-based. How it is done:
as §1, §2, §3

On to `COC(=O)c1ccc(NS(=O)(=O)c2ccc(Cl)c3nonc23)cc1` [compound 8, Methyl 4-{[(7-chloro-2,1,3-benzoxadiazol-4-yl)sulfonyl]amino}benzoate], for which the IC50 was no less than 20 µM with A549 cells (3pt, read-out: A549 3pt) and no less than 20 µM against TRAF6/Uev1A/Ubc13. Consider `O=S(=O)(Nc1ccc(F)c(Cl)c1)c1cccc2nonc12` [compound 14, N-(3-chloro-4-fluorophenyl)-2,1,3-benzoxadiazole-4-sulfonamide], for which the IC50 in the assay with H1299 cells is no less than 20 µM; in the assay with A549 cells (3pt, read-out: A549 3pt) it was no less than 20 µM. As to `O=S(=O)(Nc1c(F)cccc1F)c1cccc2nonc12` [compound 15, N-(2,6-difluorophenyl)-2,1,3-benzoxadiazole-4-sulfonamide], the IC50 was 1 to 20 µM with H1299 cells and no less than 20 µM with A549 cells (3pt, read-out: A549 3pt). In the case of `O=S(=O)(Nc1c(F)cc(F)cc1F)c1cccc2nonc12` [compound 16, N-(2,4,6-trifluorophenyl)-2,1,3-benzoxadiazole-4-sulfonamide], the IC50 in the assay with H1299 cells was no less than 20 µM; with A549 cells (3pt, read-out: A549 3pt), no less than 20 µM. Consider `Cc1cc(NS(=O)(=O)c2cccc3nonc23)ccc1I` [compound 18, N-(4-iodo-3-methylphenyl)-2,1,3-benzoxadiazole-4-sulfonamide], for which the IC50 in the assay on H1299 cells was no less than 20 µM; with A549 cells (3pt, read-out: A549 3pt) it was no less than 20 µM. With `Cc1cc(F)ccc1NS(=O)(=O)c1cccc2nonc12` [compound 19, N-(4-fluoro-2-methylphenyl)-2,1,3-benzoxadiazole-4-sulfonamide], the IC50 was no less than 20 µM in the assay with H1299 cells and no less than 20 µM in the assay with A549 cells (3pt, read-out: A549 3pt). On to `Cc1ccc(C)c(NS(=O)(=O)c2cccc3nonc23)c1` [compound 21, N-(2,5-dimethylphenyl)-2,1,3-benzoxadiazole-4-sulfonamide], for which the IC50 was 1 to 20 µM in the assay on H1299 cells and no less than 20 µM with A549 cells (3pt, read-out: A549 3pt).

With `O=S(=O)(Nc1cccc(F)c1)c1cccc2nonc12` [compound 22, N-(3-fluorophenyl)-2,1,3-benzoxadiazole-4-sulfonamide], the IC50 with H1299 cells was no less than 20 µM; in the assay with A549 cells (3pt, read-out: A549 3pt), no less than 20 µM. Consider `O=S(=O)(Nc1ccc(F)c(F)c1)c1cccc2nonc12` [compound 23, N-(3,4-difluorophenyl)-2,1,3-benzoxadiazole-4-sulfonamide], for which the IC50 in the assay on H1299 cells is no less than 20 µM; in the assay with A549 cells (3pt, read-out: A549 3pt) it was no less than 20 µM.

On to `Cc1cc2cc(NS(=O)(=O)c3cccc4nonc34)ccc2[nH]1` [compound 24, N-(2-methyl-1H-indol-5-yl)-2,1,3-benzoxadiazole-4-sulfonamide], for which the IC50 was in the range of 1 to 20 µM with H1299 cells and 1 to 20 µM with A549 cells (3pt, read-out: A549 3pt). Consider `O=S(=O)(Nc1cc(F)ccc1F)c1cccc2nonc12` [compound 27, N-(2,5-difluorophenyl)-2,1,3-benzoxadiazole-4-sulfonamide], for which the IC50 in the assay with H1299 cells was no less than 20 µM; in the assay on A549 cells (3pt, read-out: A549 3pt), no less than 20 µM. `O=S(=O)(Nc1cccc(Cl)c1)c1cccc2nonc12` [compound 43, N-(3-chlorophenyl)-2,1,3-benzoxadiazole-4-sulfonamide]: the IC50 in the assay with H1299 cells was no less than 20 µM; in the assay on A549 cells (3pt, read-out: A549 3pt), 1 to 20 µM.

Regarding `O=S(=O)(NCc1ccccn1)c1cccc2nonc12` [compound 49, N-(pyridin-2-ylmethyl)-2,1,3-benzoxadiazole-4-sulfonamide], the IC50 with H1299 cells was no less than 20 µM; in the assay on A549 cells (3pt, read-out: A549 3pt) it was no less than 20 µM. As for `COCCNS(=O)(=O)c1cccc2nonc12` [compound 50, N-(2-methoxyethyl)-2,1,3-benzoxadiazole-4-sulfonamide], the IC50 in the assay on H1299 cells is no less than 20 µM; with A549 cells (3pt, read-out: A549 3pt) it was no less than 20 µM. At TRAF6/Uev1A/Ubc13, `O=[N+]([O-])c1c(N2CCCCC2)cc(N2CCC(O)(c3ccccc3)CC2)c2nonc12` [compound 301, 1-(7-nitro-6-piperidin-1-yl-2,1,3-benzoxadiazol-4-yl)-4-phenylpiperidin-4-ol] returned an IC50 of no less than 20 µM. As for `O=C1OC2(CCN(c3ccc([N+](=O)[O-])c4nonc34)CC2)c2ccccc21` [compound 302, 1′-(7-nitro-2,1,3-benzoxadiazol-4-yl)-3H-spiro[2-benzofuran-1,4′-piperidin]-3-one], the IC50 at TRAF6/Uev1A/Ubc13 lay in the range of 1 to 20 µM. `CCN(CC)c1cc(N2CCC3(CC2)OC(=O)c2ccccc23)c2nonc2c1[N+](=O)[O-]` [compound 303, 1′-[6-(diethylamino)-7-nitro-2,1,3-benzoxadiazol-4-yl]-3H-spiro[2-benzofuran-1,4′-piperidin]-3-one] came in with an IC50 on TRAF6/Uev1A/Ubc13 of no less than 20 µM. In the case of `O=C1OC2(CCN(c3cc(N4CCCCC4)c([N+](=O)[O-])c4nonc34)CC2)c2ccccc21` [compound 304, 1′-(7-nitro-6-piperidin-1-yl-2,1,3-benzoxadiazol-4-yl)-3H-spiro[2-benzofuran-1,4′-piperidin]-3-one], at TRAF6/Uev1A/Ubc13, the IC50 is no less than 20 µM. As to `FC(F)(F)c1cccc(-c2cccc3nonc23)c1` [compound 305, 4-[3-(Trifluoromethyl)phenyl]-2,1,3-benzoxadiazole], the IC50 against TRAF6/Uev1A/Ubc13 is no less than 20 µM. For `Cc1cccc(-c2cccc3nonc23)c1` [compound 306, 4-(3-Methylphenyl)-2,1,3-benzoxadiazole], the IC50 in the assay on A549 cells (6pt, read-out: A549 6pt) was no less than 20 µM; against TRAF6/Uev1A/Ubc13 it was no less than 20 µM. For `COC(=O)c1ccc(NS(=O)(=O)c2ccc(Sc3ccc4ccccc4n3)c3nonc23)cc1` [compound 316, Methyl 4-({[7-(quinolin-2-ylthio)-2,1,3-benzoxadiazol-4-yl]sulfonyl}amino)benzoate], the IC50 on TRAF6/Uev1A/Ubc13 is no less than 20 µM.

For `COc1ccccc1-c1cc(Cl)c2nonc2c1` [compound 330, 4-Chloro-6-(2-methoxyphenyl)-2,1,3-benzoxadiazole], the IC50 in the assay with A549 cells (6pt, read-out: A549 6pt) is no less than 20 µM. Consider `O=[N+]([O-])c1cccc(-c2cc(Cl)c3nonc3c2)c1` [compound 331, 4-Chloro-6-(3-nitrophenyl)-2,1,3-benzoxadiazole], for which the IC50 in the assay with A549 cells (6pt, read-out: A549 6pt) is no less than 20 µM.
